Measured values reported in patent US20100216734A1, “MODULATION OF NEUROGENESIS BY NOOTROPIC AGENTS” (BrainCells, Inc., priority 2006, published 2010).
“And” between values parts separate entries of the source, which are not always exact repeats. Identical values can stand only once. “Also recorded” adds a separate entry of the source. Counter-ions that a name gives are not always drawn. Like-named read-outs stand apart in the source and are kept apart here. Peptide text beside a SMILES is read from it. * marks the point of attachment. PhAc = O=C(Cc1ccccc1)*

Tests used:
mGluR3 = mGluR3 (Homo sapiens, UniProt Q14832); conditions: read-out: IC50 against mGluR3; cited from earlier work
mGluR2 = mGluR2 (Homo sapiens, UniProt Q14416); conditions: read-out: IC50 against mGluR2; cited from earlier work
[1] = system: Group I or Group III receptors; conditions: at sub-mM concentrations; cited from earlier work
[2] = system: human neural stem cells (hNSCs); experiment: Neuronal differentiation of human neural stem cells (TUJ-1 staining); format: cell-based; conditions: for effect on neuronal differentiation, agent alone (in words): dose response of agent alone; for maximal percent neuronal differentiation in the presence of 1.0 μM NBQX: with 1.0 μM NBQX
human mGlu3 receptors = human mGlu3 receptors (Homo sapiens, UniProt Q14832); conditions: in vitro; low nanomolar range; read-out: EC50 against human mGlu3 receptors; cited from earlier work
human mGlu2 receptors = human mGlu2 receptors (Homo sapiens, UniProt Q14416); conditions: in vitro; low nanomolar range; read-out: EC50 against human mGlu2 receptors; cited from earlier work
male F344 rats = experiment: Novel object recognition in rat; format: in vivo; conditions: 0.5 mg/kg/day i.p. once daily for 7 days, p<0.05
Experimental: SGS-111 (0.5 mg/kg/day, i.p.) was administered to male F344 rats (n=12) once daily for 7 days. Animals were tested after 7 days of drug administration.
Shown in FIG. 9 is the mean number of visits to the novel object for vehicle and SGS-111 treated rats (±SEM). The y-axis represents mean visits. The x-axis indicates treatment. […] This difference is indicative of cognitive enhancement, an in vivo behavioral consequence of enhanced neurogenesis by SGS-111.

[3] = system: KA, AMPA, and NMDA iGlu receptors; conditions: cited from earlier work
[4] = Homo sapiens, Neural stem cell, hNSCs, agent run independently, % of neuronal positive control, basal media subtracted, read-out: EC50 for neuronal differentiation, agent alone
[5] = hNSCs, % of neuronal positive control
[6] = hNSCs, test agent dose response with constant 0.316 μM AMPA, read-out: EC50 for neuronal differentiation in combination with 0.316 μM AMPA
[7] = hNSCs, agent run independently, % of neuronal positive control, basal media subtracted, read-out: EC50 for neuronal differentiation, agent alone

Sequence of mGluR2 (Q14416 19-872): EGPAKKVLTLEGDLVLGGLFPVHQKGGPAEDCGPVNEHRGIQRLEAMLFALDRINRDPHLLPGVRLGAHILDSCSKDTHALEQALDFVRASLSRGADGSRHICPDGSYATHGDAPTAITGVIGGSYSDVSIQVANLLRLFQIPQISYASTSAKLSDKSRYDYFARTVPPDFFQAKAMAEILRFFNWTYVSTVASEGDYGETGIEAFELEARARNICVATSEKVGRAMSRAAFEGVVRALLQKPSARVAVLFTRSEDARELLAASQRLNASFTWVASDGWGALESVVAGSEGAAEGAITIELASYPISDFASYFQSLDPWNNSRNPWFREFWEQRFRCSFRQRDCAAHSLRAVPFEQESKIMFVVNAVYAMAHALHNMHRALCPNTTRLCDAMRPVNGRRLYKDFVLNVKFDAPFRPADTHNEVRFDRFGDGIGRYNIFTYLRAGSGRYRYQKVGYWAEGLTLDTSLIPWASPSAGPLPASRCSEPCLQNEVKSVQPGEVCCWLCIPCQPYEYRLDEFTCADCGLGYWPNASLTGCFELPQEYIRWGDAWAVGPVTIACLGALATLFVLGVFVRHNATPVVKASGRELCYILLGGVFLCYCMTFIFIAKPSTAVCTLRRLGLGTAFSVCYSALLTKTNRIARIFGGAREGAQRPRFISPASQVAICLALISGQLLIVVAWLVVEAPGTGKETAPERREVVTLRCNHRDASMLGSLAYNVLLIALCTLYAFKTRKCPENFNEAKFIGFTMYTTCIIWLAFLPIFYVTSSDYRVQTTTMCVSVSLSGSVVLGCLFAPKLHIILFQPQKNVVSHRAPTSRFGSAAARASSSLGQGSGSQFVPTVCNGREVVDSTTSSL
Sequence of human mGlu2 receptors (Q14416 19-872): as above
Sequence of human mGlu3 receptors (Q14832 23-879): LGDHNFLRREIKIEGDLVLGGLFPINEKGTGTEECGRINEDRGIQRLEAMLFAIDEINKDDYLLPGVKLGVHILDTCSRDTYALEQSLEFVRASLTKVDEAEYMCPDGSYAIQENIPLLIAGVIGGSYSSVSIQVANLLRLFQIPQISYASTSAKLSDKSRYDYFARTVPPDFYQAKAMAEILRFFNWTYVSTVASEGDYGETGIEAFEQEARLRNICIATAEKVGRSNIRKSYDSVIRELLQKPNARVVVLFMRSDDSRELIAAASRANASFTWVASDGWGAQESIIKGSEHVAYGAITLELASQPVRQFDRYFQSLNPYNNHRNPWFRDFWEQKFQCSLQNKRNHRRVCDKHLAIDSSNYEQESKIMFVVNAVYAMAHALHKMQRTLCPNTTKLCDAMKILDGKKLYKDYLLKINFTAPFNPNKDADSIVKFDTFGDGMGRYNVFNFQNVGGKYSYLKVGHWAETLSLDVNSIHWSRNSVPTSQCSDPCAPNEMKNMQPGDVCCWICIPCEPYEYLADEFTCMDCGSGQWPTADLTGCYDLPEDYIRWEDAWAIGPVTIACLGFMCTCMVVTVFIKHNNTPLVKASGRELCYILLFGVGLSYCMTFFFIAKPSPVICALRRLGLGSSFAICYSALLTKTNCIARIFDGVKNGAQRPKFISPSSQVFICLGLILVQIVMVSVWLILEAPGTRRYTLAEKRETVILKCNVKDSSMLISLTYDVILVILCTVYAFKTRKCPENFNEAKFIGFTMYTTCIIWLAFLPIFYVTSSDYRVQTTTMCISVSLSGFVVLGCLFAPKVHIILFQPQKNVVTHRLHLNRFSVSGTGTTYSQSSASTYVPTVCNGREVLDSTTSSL
Sequence of mGluR3 (Q14832 23-879): as above

For NC1(C(=O)O)CCc2cc(P(=O)(O)O)ccc21 (racemic) [APICA, (RS)-1-amino-5-phosphonoindan-1-carboxylic acid], the IC50 (mGluR3) is given as roughly 30 µM, the IC50 (mGluR2) is given as roughly 30 µM and the “activity against Group I or Group III receptors (in words)” value [1] is given as “no appreciable activity”.

With CCCCN(CC)c1nc(C)nc2c1c(C)c(C)n2-c1c(C)cc(C)cc1C [antalarmin] the EC50 [2, 4] was 4.68 µM.

For N[C@@]1(C(=O)O)CO[C@H]2[C@H](C(=O)O)[C@H]21 [LY379268, (−)-2-oxa-4-aminobicyclohexane-4,6-dicarboxylic acid], the EC50 (human mGlu3 receptors) is given as less than 10 nM and the EC50 (human mGlu2 receptors) is given as less than 10 nM.

In the case of NC(=O)CN1CCCC1=O [Piracetam], the EC50 ([2]; Homo sapiens, Neural stem cell, hNSCs, with 1.0 μM AMPA antagonist NBQX, read-out: EC50 for neuronal differentiation in the presence of 1.0 μM NBQX) is reported as greater than 32 µM, the Emax ([2]; Homo sapiens, Neural stem cell, hNSCs, % of neuronal positive control, read-out: maximum percent neuronal differentiation (maximum efficacy), agent alone) is reported as 60% and the “effect on neuronal differentiation, agent alone (in words)” value ([2]; hNSCs) is reported as “promoted neuronal differentiation”. The “maximal percent neuronal differentiation in the presence of 1.0 μM NBQX” value [2, 5] was 38%.

In the case of NC(=O)COc1c(F)cc(SCCNS(=O)(=O)c2ccccc2)cc1F [PEPA], the “effect on neuronal differentiation in the presence of 0.316 μM AMPA (in words)” value ([2]; hNSCs, constant 0.316 μM AMPA) is reported as “stimulation of neuronal differentiation that was dose-dependent upon PEPA”, the “effect on neuronal differentiation, agent alone (in words)” value ([2]; hNSCs) is reported as “No effect on neuronal differentiation; also recorded: did not significantly enhance neuronal differentiation” and the EC50 [2, 6] is reported as 0.69 µM.

COc1ccc2[nH]cc(CCNC(C)=O)c2c1 [melatonin] showed an EC50 [2, 4] of 320 µM.

For CCOC(=O)CNC(=O)[C@@H]1CCCN1C(=O)Cc1ccccc1 [SGS-111] (PhAc-Pro-Gly-OEt), the “maximum percent neuronal differentiation (maximum efficacy), agent alone” value [2, 5] was roughly 40%, the “maximum percent neuronal differentiation (maximum efficacy) in combination with 0.316 μM AMPA” value ([2]; hNSCs, % of neuronal positive control, constant 0.316 μM AMPA) was “approximately 60%” and the EC50 [2, 7] was 7.2 µM. For the same compound, the “effect on neuronal differentiation in the presence of 0.316 μM AMPA (in words)” value ([2]; hNSCs, constant 0.316 μM AMPA) was “a greater number of neurons at the highest concentration tested”, the EC50 [2, 6] was 4.2 µM and the “number of visits to / preference for the novel object versus familiar object” value (male F344 rats) was “statistically significant increase”.

With COC(=O)[C@@H]1[C@H]2C[C@H]3c4[nH]c5ccccc5c4CCN3C[C@@H]2CC[C@@H]1O [yohimbine] the EC50 [2, 4] was 0.62 µM.

For NCC1CC(=O)N(Cc2ccccc2)C1 (stereo not shown) [nebracetam], the Emax ([2]; Homo sapiens, Neural stem cell, hNSCs, % of neuronal positive control, constant 0.316 μM AMPA, read-out: maximum percent neuronal differentiation (maximum efficacy) in combination with 0.316 μM AMPA) was 63%, the “effect on neuronal differentiation in the presence of 0.316 μM AMPA (in words)” value ([2]; hNSCs, constant 0.316 μM AMPA) was “promoted dose dependent neuronal differentiation” and the “effect on neuronal differentiation, agent alone (in words)” value ([2]; hNSCs) was “failed to stimulate neuronal differentiation; also recorded: no effect on neuronal differentiation”. The EC50 [2, 6] was 0.28 µM and 0.97 µM.

For N[C@](CC1c2ccccc2Oc2ccccc21)(C(=O)O)[C@H]1C[C@@H]1C(=O)O [LY341495, (2S)-2-amino-2-(1S,2S-2-carboxycycloprop-1-yl)-3-(xanth-9-yl) propanoic acid], the “activity against KA, AMPA, and NMDA iGlu receptors (in words)” value [3] is listed as “substantially inactive”.

For O=C1CC[C@H](C(=O)N2CCCCC2)N1 [fasoracetam], the EC50 [2, 4] was 3.13 µM.

For O=C1CC2(CCCC2)CC(=O)N1CCCCN1CCN(c2ncccn2)CC1 [buspirone], the EC50 [2, 4] was 7.43 µM.

For CCCc1nc2c(C)cc(-c3nc4ccccc4n3C)cc2n1Cc1ccc(-c2ccccc2C(=O)O)cc1 [telmisartan], the EC50 [2, 4] was 2.75 µM.

Compound NC(=O)c1ncn([C@@H]2O[C@H](CO)[C@@H](O)[C@H]2O)n1 [ribavirin] has an EC50 [2, 4] of 5.14 µM.

For COC(=O)C(c1ccccc1)C1CCCCN1 (stereo not shown) [methylphenidate HCl, methylphenidate hydrochloride], the EC50 ([2]; Homo sapiens, Neural stem cell, read-out: EC50 for neuronal differentiation, agent alone, hNSCs, agent run independently, % of neuronal positive control, basal media subtracted) was 1.29 µM.

For CC(=O)NCCCS(=O)(=O)O [acamprosate], the EC50 [2, 4] was 16.4 µM and the EC50 [2, 7] was 9.68 µM.

For Cc1onc(O)c1CC(N)C(=O)O (stereo not drawn) [AMPA, alpha-amino-3-hydroxy-5-methyl-4-isoxazolepropionic acid], the EC50 ([2]; Homo sapiens, Neural stem cell, read-out: EC50 for neuronal differentiation in the presence of 1.0 μM NBQX, hNSCs, with 1.0 μM AMPA antagonist NBQX) was greater than 32 µM, the Emax ([2]; Homo sapiens, Neural stem cell, read-out: maximum percent neuronal differentiation (maximum efficacy), agent alone) was 50% and the “effect of AMPA at 0.316 μM alone on neuronal differentiation (in words)” value ([2]; hNSCs, AMPA 0.316 μM) was “failed to stimulate neuronal differentiation; also recorded: no effects on neuronal differentiation”. The “effect on neuronal differentiation, agent alone (in words)” value ([2]; hNSCs) was “promoted neuronal differentiation” and the “maximal percent neuronal differentiation in the presence of 1.0 μM NBQX” value [2, 5] was 7%.

With CC(=O)N1CCN(NC(=O)c2ccc(F)cc2)CC1 [FK-960] the EC50 [2, 7] was 7 µM and the “effect on neuronal differentiation, agent alone (in words)” value ([2]; hNSCs) was “promoted neuronal differentiation”.
